We go through 1 compound from patent US9981983B2, “Thienopyranones as kinase inhibitors” (SignalRx Pharmaceuticals, Inc., priority 2008, dated 2018).

Assay type in all cases: cell-based
In assay [1] the test system is pAKT serine 473 level in PC3 cells. As to the kind of experiment: pAKT status in IGF-1 stimulated PC3 cells (Ser473 pAKT ELISA). The note with it: Homo sapiens, PC-3; IGF-1 stimulated PC3 cells; read-out: PC3 pAKT IC50. How it is done:
(§1) PC3 cells were obtained from the American Type Culture Collection (ATCC, Manassas, Va., Cat.# CRL-1435). Two million cells from the prostate cancer line PC3 were placed into 6 cm culture dishes and allowed to grow in complete RPMI 1640 media (Invitrogen, Carlsbad, Calif., Cat.#22400-105) with 10% fetal bovine serum (Invitrogen, Carlsbad, Calif., Cat.#10438-026). After this time period the cells were serum starved for 5 hours followed by application of the test compound. Test compound was added as a DMSO (dimethyl sulfoxide) solution such that the final DMSO concentration in the cell media was less than or equal to 0.2% by volume After 30 minutes of exposure the growth factor stimulant, human IGF-1 (PeproTech, Inc., Rocky Hill, N.J., Cat.#100-11), was added to a final concentration of 0.1 μg/ml in each well. After 30 minutes of IGF-1 exposure, cells were removed from the media and cell lysates were prepared using RIPA Lysis buffer (Upstate, Lake Placid, N.Y., Cat.#20-188), keeping on ice. The pAKT serine 473 level was measured in duplicate samples of the cell lysates using commercially available assays such as the Pathscan® Sandwich ELISA kit for Ser473 pAKT (Cell Signaling, Danvers, Mass., Cat.#7160). A SpectraMax Plus spectrophotometric plate reader (Molecular Devices, Sunnydale, Calif.) was used to measure the optical density signal for pAKT at 450 nm (OD450 nm). The pAKT OD450 nm readings were normalized by total protein amount in the cell lysates determined by standard methods.
(§2) Concentrations of test compounds required to inhibit IGF stimulated pAKT levels to 50% of maximum levels in PC3 cells (termed DM50 for decreased maximum 50%) were calculated by inputting the dose responses in the software package GraphPad Prism4 (GraphPad Software, Inc., San Diego, Calif.).
By these methods a number of compounds of the invention were evaluated and the concentration needed to reduce the detectable pAKT to 50% of the maximal uninhibited signal was calculated. These values (in μMolar units) are listed in Table 8 under the column heading PC3 pAKT IC50 (μMolar).

The test system of another assay is DU145 (Prostate). As to the kind of experiment: Cell proliferation MTS assay, DU145. The note with it: Homo sapiens, DU-145, 72 hours. How it is done:
(§3) All cell lines were obtained from ATCC and cultured and plated according to ATCC recommendations. Cells were cultured in complete culture media containing 10% heat-inactivated fetal bovine serum (FBS, Mediatech, Inc.). For adherent cell lines, once cells reached 70% confluency, they were trypsinized and resuspended in phenol red free RPMI media (Mediatech, Inc.) plus 10% heat-inactivated FBS (assay buffer) and 100 μL aliquots were plated into each well of 96-well microtiter plates at a final density of 1,000-2,000 cells/well. Cells were incubated overnight at 37° C. in 5% CO2, and treated with test compounds on the next day. For suspension cell lines, cells were resuspended in assay buffer, plated into 96-well microtiter plates at a density of 10^4-10^5 cells/well/100 μL, and treatment was started on the same day. Cells were treated with vehicle (DMSO) and test compounds for 72 hours at concentration of 100, 70, 40, 20, 10, 5, 2.5, 1.25, 0.5 and 0.2 μM in four replicates at 37° C. in 5% CO2.
A general note: Tetrazolium assays rely on reduction of a dye to a coloured formazan, in cell work by metabolically active cells.

The subject of another assay is HT29 (Colon). Description: Cell proliferation MTS assay, HT29. Conditions: Homo sapiens, HT-29, 72 hours. As for the experimental part: as §3
For another assay, the system named is HCT116 (Colon). Description: Cell proliferation MTS assay, HCT116. The note with it: Homo sapiens, HCT-116, 72 hours. As for the experimental part: as §3
The test system of another assay is MDA-MB468 (Breast). Description: Cell proliferation MTS assay, MDA-MB468. Conditions: Homo sapiens, MDA-MB-468, 72 hours. How it is done:
as §3

In another assay the test system is OVCAR3 (Ovary). Description: Cell proliferation MTS assay, OVCAR3. The note with it: Homo sapiens, OVCAR-3, 72 hours. As for the experimental part: as §3
Another assay has as its system 786-O (Renal). Description: Cell proliferation MTS assay, 786-O. Conditions: Homo sapiens, 786-0, 72 hours. How it is done: as §3
The subject of another assay is RPM18226 (Myeloma). As to the kind of experiment: Cell proliferation MTS assay, RPM18226. Conditions: 72 hours. How it is done: as §3
Another assay deals with K562 (CML). As to the kind of experiment: Cell proliferation MTS assay, K562. Conditions: Homo sapiens, 72 hours. How it is done: as §3
A further assay concerns pAKT in H1299 cells. As to the kind of experiment: pAKT status DM50, H1299. Conditions: Homo sapiens, NCI-H1299; H1299, non-small cell lung cancer. How it is done:
as §1, §2
(§4) Several other cancer cell lines were obtained from ATCC and grown according to the supplier's recommendations and treated with test compounds. DM50 values listed in Table 6 below were obtained by the methods described in Example A: […]

The subject of a further assay is pAKT in BT-474 cells. Description: pAKT status DM50, BT-474. Conditions: Homo sapiens; BT-474, breast cancer. How it is done: as §1, §2, §4
A further assay relates to H1299 cells. Description: Cellular proliferation (Example B method), H1299. The note with it: Homo sapiens, NCI-H1299; H1299, non-small cell lung cancer. How it is done: (§5) PC3 cells were obtained from the American Type Culture Collection (ATCC, Manassas, Va., Cat.# CRL-1435) Two thousand cells from the prostate cancer line PC3 were placed in 50 μL of complete RPMI 1640 media (Invitrogen, Carlsbad, Calif., Cat.#22400-105) with 10% fetal bovine serum (Invitrogen, Carlsbad, Calif., Cat.#10438-026) into each well of 96 well cell culture plates in a hexaplicate sampling pattern. A 50 μL aliquot of test compound (prepared from stock test compounds in DMSO diluted into media) was added to the appropriate well such that the final concentrations of test compound were 200, 40, 8, 1.6, 0.32, 0.064, 0.0128, 0.00256, and 0 μM and the final DMSO concentration was less than or equal to 0.2%.
(§6) The plates were incubated for 72 hours 37° C. in an atmosphere of 5% CO2. At the end of this time a 10 μL aliquot of WST solution (Roche Applied Science, Mannheim, Germany) was added into each of the wells. Cells were exposed to the WST solution for 4 hours. A SpectraMax Plus spectrophotometric plate reader (Molecular Devices, Sunnydale, Calif.) was then used to measure the optical density at 450 nm (OD450 nm). Sigmoidal curves were drawn for the dose responses and IC50 values were calculated using the software package GraphPad Prism4 (GraphPad Software, Inc., San Diego, Calif.).
(§7) Several other cancer cell lines were obtained from ATCC and grown according to their recommendations and treated with test compounds to obtain the concentration of test compound that inhibited the cellular proliferation by 50% of no-treatment controls. These IC50 values (μM) are listed in Table 7 below obtained by the methods described in Example B: […]

The test system of another assay is BT-474 cells. Description: Cellular proliferation (Example B method), BT-474. The note with it: Homo sapiens; BT-474, breast cancer. How it is done:
as §5, §6, §7

Take `O=c1cc(N2CCOCC2)oc2c(-c3ccc4c(c3)OCCO4)csc12` [Compound 28, 3-(2,3-dihydrobenzo[b][1,4]dioxin-6-yl)-5-morpholino-7H-thieno[3,2-b]pyran-7-one]: the half-inhibitory concentration (IC50) (as a rule, the concentration that inhibits the measured activity by half) in assay [1] was 161 to 440 nM; in the assay with DU145 (Prostate) it was 2070 nM; in the assay with HT29 (Colon), 2400 nM; in the assay on HCT116 (Colon), 2200 nM; in the assay with MDA-MB468 (Breast) it was 2710 nM; in the assay on OVCAR3 (Ovary), 1240 nM. Also, the IC50 with 786-O (Renal) amounted to 2820 nM; in the assay with RPM18226 (Myeloma), 730 nM; in the assay on K562 (CML), 3200 nM; with pAKT in H1299 cells, 886 nM; in the assay with pAKT in BT-474 cells, 307 nM; with H1299 cells it was 951 nM. Further, the half-inhibitory concentration (IC50) in the assay on BT-474 cells worked out at 3780 nM.
